Test results: US20250195530A1, “POLQ INHIBITORS” (ASTRAZENECA AB, priority 2022, published 2025)
Like-named read-outs stand apart in the source and are kept apart here. Each block holds one compound with its values, some of them ahead of it.

What was measured:
DLD-1 BRCA2−/− cells = test: Homologous recombination synthetic lethal inhibition of proliferation, DLD-1 BRCA2-/- (Cell Titre Glo 3D); type: cell-based; details: for IC50: Homo sapiens
Method in brief: (§1)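 Cells are seeded in RPMI 1640 (phenol red free, 10% FBS, GlutaMAX) onto pre-dosed compound (10 μM to 0.51 nM, three-fold). Plates are incubated at 37 °C, and medium plus compound are refreshed on day 6. Viability is read by CellTiter-Glo 3D at day 7 (DLD-1) or day 12 (DLD-1 BRCA2−/−), and the IC50 is fitted.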

DLD-1 cells = test: Inhibition of proliferation, DLD-1 BRCA2 wt control (Cell Titre Glo 3D); type: cell-based; details: for IC50: Homo sapiens
Method in brief: as §1

[1] = DLD-1, first proliferation column (c5), DLD-1 BRCA2-/-, read-out: POLQ PD Prolif Lumin (converted)
[2] = DLD-1, second proliferation column (c6), DLD-1 BRCA2 wt control, read-out: POLQ PD Prolif Lumin (converted)
[3] = DLD-1, first proliferation column (c5), taken as DLD-1 BRCA2-/-, read-out: POLQ PD Prolif Lumin (converted)
[4] = DLD-1, second proliferation column (c6), taken as DLD-1 BRCA2 wt, read-out: POLQ PD Prolif Lumin (converted)
[5] = DLD-1, DLD-1 BRCA2 −/−, mean, read-out: POLQ PD Prolif Lumin BRCA2 −/− mean pIC50 (converted)
[6] = DLD-1, DLD1 BRCA2 wt, mean, read-out: POLQ PD Prolif Lumin DLD1 mean pIC50 (converted)
[7] = DLD-1, proliferation, luminescence, taken as DLD-1 BRCA2-/-, read-out: POLQ PD Prolif Lumin (converted)
[8] = DLD-1, proliferation, luminescence, second Prolif column (c6), taken as DLD-1 BRCA2 wt control, read-out: POLQ PD Prolif Lumin (converted)
[9] = DLD-1, 288 h, DLD-1 BRCA2−/− cells, 12 days, read-out: POLQ PD Prolif Lumin BRCA2 −/− mean pIC50 (converted)
[10] = DLD-1, 168 h, DLD-1 BRCA2 wt cells, 7 days, read-out: POLQ PD Prolif Lumin DLD1 mean pIC50 (converted)

IC50 (DLD-1 cells; [2]): > 10000 nM
Compound: CC1(Oc2ncnc3c2nc(-c2ccc(OCCCN4CC[C@@H](O)C4)cc2Cl)n3Cc2cc(C(F)(F)F)ccn2)CC1 [Example T554, (R)-1-(3-(3-chloro-4-(6-(1-methylcyclopropoxy)-9-((4-(trifluoromethyl)pyridin-2-yl)methyl)-9H-purin-8-yl)phenoxy)propyl)pyrrolidin-3-ol]
IC50 (DLD-1 BRCA2−/− cells; [1]): 316 nM

IC50 (DLD-1 cells; [4]): > 10000 nM
Compound: Cc1cnc(Cn2c(-c3ccc(OC4CC5(C4)CN(C)C5)cc3Cl)nc3c(OC4(C)CC4)ncnc32)s1 [Example T359, 2-((8-(2-chloro-4-((2-methyl-2-azaspiro[3.3]heptan-6-yl)oxy)phenyl)-6-(1-methylcyclopropoxy)-9H-purin-9-yl)methyl)-5-methylthiazole]
IC50 (DLD-1 BRCA2−/− cells; [3]): 501 nM

IC50 (DLD-1 cells; DLD-1, second proliferation column, DLD-1 BRCA2 wt control, read-out: POLQ PD Prolif Lumin (converted)): > 10000 nM
Compound: Cc1ccnc(Cn2c(-c3ccc(C(=O)N4CC[C@H](N(C)C)C4)cc3Cl)nc3c(OC4(C)CC4)ncnc32)c1 [Example T588, (S)-(3-chloro-4-(6-(1-methylcyclopropoxy)-9-((4-methylpyridin-2-yl)methyl)-9H-purin-8-yl)phenyl)(3-(dimethylamino)pyrrolidin-1-yl)methanone]
IC50 (DLD-1 BRCA2−/− cells; DLD-1, first proliferation column, DLD-1 BRCA2-/-, read-out: POLQ PD Prolif Lumin (converted)): 1260 nM

IC50 (DLD-1 cells; [2]): > 10000 nM
Compound: Cc1c(Cl)ccnc1Cn1c(-c2ccc(OCCN3CCNCC3)cc2Cl)nc2c(OC3(C)CC3)ncnc21 [Example T525, 9-((4-chloro-3-methylpyridin-2-yl)methyl)-8-(2-chloro-4-(2-(piperazin-1-yl)ethoxy)phenyl)-6-(1-methylcyclopropoxy)-9H-purine]
IC50 (DLD-1 BRCA2−/− cells; [1]): 1260 nM

IC50 (DLD-1 cells; [6]): > 10000 nM
Compound: CC1(Oc2ncnc3c2nc(-c2cccc(OCCOCC(=O)O)c2Cl)n3Cc2cc(Cl)ccc2F)CC1 [Example U22, 2-(2-(2-chloro-3-(9-(5-chloro-2-fluorobenzyl)-6-(1-methylcyclopropoxy)-9H-purin-8-yl)phenoxy)ethoxy)acetic acid]
IC50 (DLD-1 BRCA2−/− cells; [5]): 50.1 nM

IC50 (DLD-1 cells; DLD-1, DLD1 BRCA2 wt cells, mean, read-out: POLQ PD Prolif Lumin DLD1 mean PIC50 (converted)): > 10000 nM
Compound: Cc1ccnc(Cn2c(-c3ccc(CC(=O)O)cc3Cl)nc3c(OC4(C)CC4)ncnc32)c1 [Example T49, 2-(3-chloro-4-(6-(1-methylcyclopropoxy)-9-((4-methylpyridin-2-yl)methyl)-9H-purin-8-yl)phenyl)acetic acid]
IC50 (DLD-1 BRCA2−/− cells; DLD-1, DLD-1 BRCA2 −/− cells, mean, read-out: POLQ PD Prolif Lumin BRCA2 −/− mean pIC50 (converted)): > 10000 nM

POLQ PD Prolif Lumin DLD1 mean pIC50 (DLD-1 cells; DLD1 BRCA2 wt, mean): <5.0
Compound: COc1ccc(F)cc1Cn1c(-c2cccc(O[C@H]3CC[C@H](C(=O)O)CC3)c2Cl)nc2c(OC3(C)CC3)ncnc21 [Example U69, (1r,4r)-4-(2-chloro-3-(9-(5-fluoro-2-methoxybenzyl)-6-(1-methylcyclopropoxy)-9H-purin-8-yl)phenoxy)cyclohexane-1-carboxylic acid]
POLQ PD Prolif Lumin BRCA2 −/− mean pIC50 (DLD-1 BRCA2−/− cells; DLD-1 BRCA2 −/−, mean): 7.4

IC50 (DLD-1 cells; [4]): > 10000 nM
Compound: CN(C)CCCOc1ccc(-c2nc3c(OC4(C)CC4)ncnc3n2Cc2cc(C(F)F)ccn2)c(Cl)c1 [Example T352, 3-(3-chloro-4-(9-((4-(difluoromethyl)pyridin-2-yl)methyl)-6-(1-methylcyclopropoxy)-9H-purin-8-yl)phenoxy)-N,N-dimethylpropan-1-amine]
IC50 (DLD-1 BRCA2−/− cells; [3]): 158 nM

IC50 (DLD-1 cells; [6]): > 10000 nM
Compound: COc1ccc(Cl)cc1Cn1c(-c2ccc(OCCOC(C)(C)C(=O)O)cc2Cl)nc2c(OC3(C)CC3)ncnc21 [Example U54, 2-(2-(3-chloro-4-(9-(5-chloro-2-methoxybenzyl)-6-(1-methylcyclopropoxy)-9H-purin-8-yl)phenoxy)ethoxy)-2-methylpropanoic acid]
IC50 (DLD-1 BRCA2−/− cells; [5]): 126 nM

IC50 (DLD-1 cells; [8]): > 10000 nM
Compound: C[C@H](CCOc1ccc(-c2nc3c(OC4(C)CC4)ncnc3n2Cc2ccccc2C#N)c(Cl)c1)C(=O)O [Example T402, (R)-4-(3-chloro-4-(9-(2-cyanobenzyl)-6-(1-methylcyclopropoxy)-9H-purin-8-yl)phenoxy)-2-methylbutanoic acid]
IC50 (DLD-1 BRCA2−/− cells; [7]): 398 nM

IC50 (DLD-1 cells; [8]): > 10000 nM
Compound: CC1(Oc2ncnc3c2nc(-c2ccc(OCCN4CCNCC4)cc2C(F)(F)F)n3Cc2cc(Cl)ccn2)CC1 [Example T453, 9-((4-chloropyridin-2-yl)methyl)-6-(1-methylcyclopropoxy)-8-(4-(2-(piperazin-1-yl)ethoxy)-2-(trifluoromethyl)phenyl)-9H-purine]
IC50 (DLD-1 BRCA2−/− cells; [7]): 251 nM

IC50 (DLD-1 cells; [4]): > 10000 nM
Compound: CC1(Oc2ncnc3c2nc(-c2ccc(OCCCOCC(=O)O)cc2Cl)n3Cc2cccc(Cl)c2)CC1 [Example T302, 2-(3-(3-chloro-4-(9-(3-chlorobenzyl)-6-(1-methylcyclopropoxy)-9H-purin-8-yl)phenoxy)propoxy)acetic acid]
IC50 (DLD-1 BRCA2−/− cells; [3]): 316 nM

IC50 (DLD-1 cells; [10]): 2510 nM
Compound: CC1(Oc2ncnc3c2nc(-c2ccc(OCCCN4CCNC(=O)C4)cc2Cl)n3Cc2ccccc2)CC1 [Example S2, 4-(3-(4-(9-benzyl-6-(1-methylcyclopropoxy)-9H-purin-8-yl)-3-chlorophenoxy)propyl)piperazin-2-one]
IC50 (DLD-1 BRCA2−/− cells; [9]): 50.1 nM

IC50 (DLD-1 cells; [6]): > 10000 nM
Compound: CC(CCOc1ccc(-c2nc3c(OC4(C)CC4)ncnc3n2Cc2c(F)cccc2C#N)c(Cl)c1)C(=O)O (racemic) [Example U13, 4-(3-chloro-4-(9-(2-cyano-6-fluorobenzyl)-6-(1-methylcyclopropoxy)-9H-purin-8-yl)phenoxy)-2-methylbutanoic acid]
IC50 (DLD-1 BRCA2−/− cells; [5]): 3160 nM

IC50 (DLD-1 cells; [10]): 3980 nM
Compound: CN1CCN(CCOc2cc(F)c(-c3nc4c(OC5(C)CC5)ncnc4n3Cc3ccccc3)c(F)c2)CC1 [Example H1, 9-benzyl-8-(2,6-difluoro-4-(2-(4-methylpiperazin-1-yl)ethoxy)phenyl)-6-(1-methylcyclopropoxy)-9H-purine]
IC50 (DLD-1 BRCA2−/− cells; [9]): 200 nM

POLQ PD Prolif Lumin DLD1 mean pIC50 (DLD-1 cells; DLD-1 BRCA2 wt cells, 7 days): <5.0
Compound: CC(c1cc(Cl)ccn1)n1c(-c2ccc(OCCN3CCNCC3)cc2Cl)nc2c(OC3(C)CC3)ncnc21 (single isomer, unassigned; isomer 1) [Example S6, 8-(2-chloro-4-(2-(piperazin-1-yl)ethoxy)phenyl)-9-(1-(4-chloropyridin-2-yl)ethyl)-6-(1-methylcyclopropoxy)-9H-purine (Isomer 1)]
POLQ PD Prolif Lumin BRCA2 −/− mean pIC50 (DLD-1 BRCA2−/− cells; DLD-1 BRCA2−/− cells, 12 days): 6.5

IC50 (DLD-1 cells; [10]): > 10000 nM
Compound: COc1cccnc1Cn1c(-c2ccc(OCCN3CCNCC3)cc2Cl)nc2c(OC3(C)CC3)ncnc21 [Example L10, 8-(2-chloro-4-(2-(piperazin-1-yl)ethoxy)phenyl)-9-((3-methoxypyridin-2-yl)methyl)-6-(1-methylcyclopropoxy)-9H-purine]
IC50 (DLD-1 BRCA2−/− cells; [9]): 3160 nM

IC50 (DLD-1 cells; [10]): 7940 nM
Compound: CC1(Oc2ncnc3c2nc(-c2ccc(OCCN)cc2Cl)n3Cc2ccccc2)CC1 [Example D23, 2-(4-(9-benzyl-6-(1-methylcyclopropoxy)-9H-purin-8-yl)-3-chlorophenoxy)ethan-1-amine]
IC50 (DLD-1 BRCA2−/− cells; [9]): 794 nM

IC50 (DLD-1 cells; [6]): > 10000 nM
Compound: CC1(Oc2ncnc3c2nc(-c2cc(F)cc(OCCC(=O)O)c2Cl)n3Cc2cccc(Cl)c2)CC1 [Example U39, 3-(2-chloro-3-(9-(3-chlorobenzyl)-6-(1-methylcyclopropoxy)-9H-purin-8-yl)-5-fluorophenoxy)propanoic acid]
IC50 (DLD-1 BRCA2−/− cells; [5]): 12.6 nM

IC50 (DLD-1 cells; DLD-1, 168 h, DLD-1 (BRCA2 wt control), 7 days, Cell Titre Glo 3D, read-out: POLQ PD Prolif Lumin DLD1 Mean pIC50 (converted)): > 10000 nM
Compound: Cc1ccnc(Cn2c(-c3ccc(O[C@H]4CCC(=O)NC4)cc3Cl)nc3c(OC4(C)CC4)ncnc32)c1 [Example 41, (S)-5-(3-Chloro-4-(6-(1-methylcyclopropoxy)-9-((4-methylpyridin-2-yl)methyl)-9H-purin-8-yl)phenoxy)piperidin-2-one]
IC50 (DLD-1 BRCA2−/− cells; DLD-1, 288 h, DLD-1 BRCA2−/−, 12 days, Cell Titre Glo 3D, read-out: POLQ PD Prolif Lumin BRCA2 −/− Mean pIC50 (converted)): 794 nM

IC50 (DLD-1 cells; [4]): > 10000 nM
Compound: Cc1ccnc(Cn2c(-c3cccc(OCCN4CC(O)C4)c3Cl)nc3c(OC4(C)CC4)ncnc32)c1 [Example T360, 1-(2-(2-chloro-3-(6-(1-methylcyclopropoxy)-9-((4-methylpyridin-2-yl)methyl)-9H-purin-8-yl)phenoxy)ethyl)azetidin-3-ol]
IC50 (DLD-1 BRCA2−/− cells; [3]): 794 nM

IC50 (DLD-1 cells; [6]): > 10000 nM
Compound: COc1ccc(Cl)cc1Cn1c(-c2ccc(OCC(C)CC(=O)O)cc2Cl)nc2c(OC3(C)CC3)ncnc21 (racemic) [Example U42, 4-(3-chloro-4-(9-(5-chloro-2-methoxybenzyl)-6-(1-methylcyclopropoxy)-9H-purin-8-yl)phenoxy)-3-methylbutanoic acid]
IC50 (DLD-1 BRCA2−/− cells; [5]): 39.8 nM

IC50 (DLD-1 cells; [8]): > 10000 nM
Compound: Cc1ccnc(Cn2c(-c3ccc(C(=O)N4CC5(CNC5)C4)cc3Cl)nc3c(OC4(C)CC4)ncnc32)c1 [Example T428, (3-chloro-4-(6-(1-methylcyclopropoxy)-9-((4-methylpyridin-2-yl)methyl)-9H-purin-8-yl)phenyl)(2,6-diazaspiro[3.3]heptan-2-yl)methanone]
IC50 (DLD-1 BRCA2−/− cells; [7]): > 10000 nM
